Source: patent US20260220796A1, “Systems and Methods for High Throughput Single Molecule Tracking in Living Cells” (EIKON THERAPEUTICS, INC., priority 2022, published 2026)
“Also recorded” adds a separate entry of the source. Like-named read-outs stand apart in the source and are kept apart here. Each block holds one molecule with its values, some of them ahead of it.

Legend:
Estrogen Receptor (ER) [1] = molecular target: T1, Estrogen Receptor (ER) (Homo sapiens, UniProt P03372); test: htSMT of Halo-ER in U2OS cells (fbound, Dfree); assay type: cell-based; conditions: for change in ER fbound (direction): follow-up of screen actives, dose titration or 100 nM
T1 construct: expressed in transfected cells
T1 sequence (P03372 1-595): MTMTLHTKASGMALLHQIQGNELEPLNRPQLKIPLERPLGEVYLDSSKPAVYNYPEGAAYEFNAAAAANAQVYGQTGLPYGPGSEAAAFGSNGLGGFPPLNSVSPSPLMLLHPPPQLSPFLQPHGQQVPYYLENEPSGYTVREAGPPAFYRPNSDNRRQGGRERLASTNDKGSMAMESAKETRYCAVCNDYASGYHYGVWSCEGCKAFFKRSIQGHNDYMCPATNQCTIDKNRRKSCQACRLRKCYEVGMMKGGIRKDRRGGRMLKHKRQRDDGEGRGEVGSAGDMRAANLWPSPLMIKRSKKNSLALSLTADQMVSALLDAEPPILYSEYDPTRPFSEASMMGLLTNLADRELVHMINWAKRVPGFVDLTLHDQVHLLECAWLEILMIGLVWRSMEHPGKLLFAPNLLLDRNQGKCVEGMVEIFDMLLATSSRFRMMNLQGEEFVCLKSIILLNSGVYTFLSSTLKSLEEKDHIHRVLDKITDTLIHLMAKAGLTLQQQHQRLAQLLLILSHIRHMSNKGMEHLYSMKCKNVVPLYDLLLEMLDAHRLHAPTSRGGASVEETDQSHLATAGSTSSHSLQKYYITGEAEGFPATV

[2] = molecular target: T2, glucocorticoid receptor (GR) (Homo sapiens, UniProt P04150); test: htSMT of Halo-GR in U2OS cells; assay type: cell-based; conditions: 1 μM antagonist, singly or with cognate agonist, FIG. 36D
T2 construct: Because U2OS cells express GR endogenously, HaloTag was inserted right before the stop codon of endogenous NR3C1; endogenous in cells; host or cells: U2OS, CRISPR/Cas9 HaloTag knock-in at the endogenous NR3C1 locus
T2 sequence (P04150 1-777): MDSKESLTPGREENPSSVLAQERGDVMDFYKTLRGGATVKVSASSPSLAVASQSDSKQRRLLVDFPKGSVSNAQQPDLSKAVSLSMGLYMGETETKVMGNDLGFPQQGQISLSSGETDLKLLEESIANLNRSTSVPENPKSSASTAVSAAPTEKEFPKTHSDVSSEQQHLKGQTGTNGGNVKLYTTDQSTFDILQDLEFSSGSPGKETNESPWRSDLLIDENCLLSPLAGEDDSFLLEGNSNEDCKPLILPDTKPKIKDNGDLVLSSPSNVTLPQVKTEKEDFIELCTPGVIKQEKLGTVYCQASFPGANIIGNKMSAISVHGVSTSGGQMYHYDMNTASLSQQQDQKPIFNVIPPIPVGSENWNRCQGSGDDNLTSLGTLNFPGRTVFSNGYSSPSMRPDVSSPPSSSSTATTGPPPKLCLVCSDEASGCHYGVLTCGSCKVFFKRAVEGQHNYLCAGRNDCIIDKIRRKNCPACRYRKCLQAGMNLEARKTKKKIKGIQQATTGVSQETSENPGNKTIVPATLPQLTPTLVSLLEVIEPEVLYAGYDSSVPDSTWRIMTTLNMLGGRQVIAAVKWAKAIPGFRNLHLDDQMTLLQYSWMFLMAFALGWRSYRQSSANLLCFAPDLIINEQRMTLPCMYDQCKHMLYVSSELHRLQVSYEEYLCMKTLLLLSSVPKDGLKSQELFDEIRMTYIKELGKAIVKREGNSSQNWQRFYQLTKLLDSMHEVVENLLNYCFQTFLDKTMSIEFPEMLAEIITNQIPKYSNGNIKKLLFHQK
Description: Where appropriate, compounds were serially diluted in an Echo Qualified 384-Well Low Dead Volume Source Microplate (0018544, Beckman Coulter) to generate dose-titration source material.

androgen receptor (AR) = androgen receptor (AR) (Homo sapiens, UniProt P10275)
Sequence of androgen receptor (AR) (P10275 whole entry): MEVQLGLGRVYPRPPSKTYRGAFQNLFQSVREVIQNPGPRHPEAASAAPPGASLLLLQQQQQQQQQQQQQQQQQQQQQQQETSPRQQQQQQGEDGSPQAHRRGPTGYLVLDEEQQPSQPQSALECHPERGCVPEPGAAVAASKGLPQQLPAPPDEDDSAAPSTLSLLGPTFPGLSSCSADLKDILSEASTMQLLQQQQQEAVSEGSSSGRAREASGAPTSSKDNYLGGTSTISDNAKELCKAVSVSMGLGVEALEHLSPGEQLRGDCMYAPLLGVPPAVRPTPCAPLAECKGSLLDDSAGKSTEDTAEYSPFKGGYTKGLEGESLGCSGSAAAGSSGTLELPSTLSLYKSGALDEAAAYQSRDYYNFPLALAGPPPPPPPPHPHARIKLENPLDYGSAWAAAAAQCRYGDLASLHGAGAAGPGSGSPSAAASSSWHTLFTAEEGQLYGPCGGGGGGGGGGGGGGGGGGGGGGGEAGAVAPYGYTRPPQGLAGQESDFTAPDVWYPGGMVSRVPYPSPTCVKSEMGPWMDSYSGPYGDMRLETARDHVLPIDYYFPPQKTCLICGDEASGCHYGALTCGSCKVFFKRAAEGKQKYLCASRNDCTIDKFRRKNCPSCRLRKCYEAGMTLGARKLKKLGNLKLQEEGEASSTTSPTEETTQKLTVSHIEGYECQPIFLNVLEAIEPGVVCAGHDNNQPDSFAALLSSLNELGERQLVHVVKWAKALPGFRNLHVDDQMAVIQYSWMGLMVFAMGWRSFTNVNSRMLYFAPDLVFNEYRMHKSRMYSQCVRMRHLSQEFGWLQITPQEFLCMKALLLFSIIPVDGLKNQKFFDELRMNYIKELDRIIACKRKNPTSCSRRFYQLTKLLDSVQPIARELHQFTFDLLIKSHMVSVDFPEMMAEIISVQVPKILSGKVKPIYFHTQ

Estrogen Receptor (ER) [3] = molecular target: T1, Estrogen Receptor (ER); test: kinetic SMT (kSMT) of ER after compound addition; assay type: cell-based; conditions: FIG. 18C, 18D
ER = molecular target: T3, ER (Homo sapiens, UniProt P03372); test: Western blot of ER after compound treatment; assay type: cell-based; conditions: 24 hours prior to lysis; MCF7, T47d, U2OS Halo-ER; FIG. 22A
T3 construct: host or cells: Halo-ER U2OS, MCF7 or T47d (immunofluorescence)
T3 sequence (P03372 1-595): T1 sequence (P03372 1-595)

Estrogen Receptor (ER) [4] = molecular target: T1, Estrogen Receptor (ER); test: residence time imaging of ER-Halo (track length survival); assay type: cell-based; conditions: 100 nM, versus DMSO, FIG. 18E

Molecule: 4-hydroxytamoxifen
change in ER fbound / ER movement in bioactive screen (Estrogen Receptor (ER) [1]): significantly increased fbound | maximal increase in fbound, compared (Estrogen Receptor (ER) [1]): lower maximal increases in fbound

Molecule: CC(O)c1cc(C(=O)N[C@@H](C)Cn2ccc(-c3ccc(C#N)c(Cl)c3)n2)[nH]n1 (stereo partly shown) [Darolutamide]
effect on AR chromatin binding (change in fbound) (androgen receptor (AR)): decrease in chromatin binding

Molecule: COc1cccc(-c2cc(F)ccc2[C@H]2Cc3nc(N)nc(C)c3C(=O)N2)n1 [HSP990]
time course of overall effect on ER movement (Estrogen Receptor (ER) [3]): reached a plateau after an hour | change in ER fbound (direction) (Estrogen Receptor (ER) [1]): increase in fbound

Molecule: CC(C)C[C@H](NC(=O)[C@H](Cc1ccccc1)NC(=O)c1cnccn1)B(O)O [bortezomib]
time course of overall effect on ER movement (Estrogen Receptor (ER) [3]): slowly increasing over the four-hour measurement window

Molecule: CC(C)C[C@H](NC(=O)[C@H](CCc1ccccc1)NC(=O)CN1CCOCC1)C(=O)N[C@@H](Cc1ccccc1)C(=O)N[C@@H](CC(C)C)C(=O)[C@@]1(C)CO1 [carfilzomib]
time course of overall effect on ER movement (Estrogen Receptor (ER) [3]): slowly increasing over the four-hour measurement window

Continued, in another order:

effect on GR chromatin binding (change in fbound) [2]: decrease in chromatin binding
Molecule: CN(C)c1ccc(C(c2ccc(N(C)C)cc2)c2cc([N+](=O)[O-])ccc2Cl)cc1 [AL082D06]

ER degradation (western blot) (ER): leads to the degradation of ER
Molecule: C[C@]12CC[C@@H]3c4ccc(O)cc4C[C@@H](CCCCCCCCC[S+]([O-])CCCC(F)(F)C(F)(F)F)[C@H]3[C@@H]1CC[C@@H]2O (stereo partly shown) [fulvestrant]
change in ER fbound / ER movement in bioactive screen (Estrogen Receptor (ER) [1]; 1 μM compound versus DMSO, 5,067-molecule screen, FIG. 15, 18A): increase in fbound; also recorded: significantly increased fbound

time course of overall effect on ER movement (Estrogen Receptor (ER) [3]): reached a plateau after an hour | change in ER fbound (direction) (Estrogen Receptor (ER) [1]): increase in fbound
Molecule: CC(C)c1cc(-c2n[nH]c(=O)n2-c2ccc3c(ccn3C)c2)c(O)cc1O [ganetespib]
decrease in total number of long binding events (Estrogen Receptor (ER) [4]): four
